In brackets after ≈: the same amount, converted by molar mass. Read-outs that look alike come from different tables or passages of the source.
Experiments:
Assay in all cases: microbe, parasite or virus in culture
E. coli TG1 = format: cell-based; conditions: Escherichia coli, β-lactamase inhibitor alone
Method: (§1) The MICs of each of the individual compounds (antibiotics or inhibitors) were also determined. The MICs were determined for the E. coli isogenic expressing OXA-48 (and both OXA-48 and CTX-M-14) to assess their activity against the carbapenemase; MICs were also determined for the 18 Enterobacterales clinical isolates in order to evaluate the new inhibitors against also their resistance concomitant mechanisms. The MICs were determined in triplicate experiments, and the EUCAST 13.0 clinical breakpoints were followed (http://www.eucast.org/clinical_breakpoints).
(§2) For comparative evaluation of the activity of each inhibitor alone against the carbapenemase OXA-48, all inhibitors (at 4 mg/L) were tested in the presence of a carbapenem (ertapenem, adequate substrate) and a cephalosporin (ceftazidime, poor substrate) as reporter substrates. This prevented any possible masking effect produced by the different partner antibiotics. These assays were also performed with isogenic transformants and clinical isolates.

E. coli TG1 (OXA-48) = format: cell-based, Escherichia coli; conditions: Escherichia coli
Method: as §1, §2

[1] = system: E. coli HB4 ΔompC/F (OXA-48); format: cell-based, Escherichia coli; conditions: Escherichia coli
Excerpt: (§3) The E. coli HB4 strain was used to gain a more complete perspective, by evaluating the involvement in resistance of a low permeability background with the carbapenemase OXA-48, as well as coproduction of an ESBL and the carbapenemase; thus, the ESBL CTX-M-14 and OXA-48 were cloned together and separately into E. coli HB4. The characteristics of these strains and transformants are summarized in Table S1, and the cloning procedures are outlined in the supplemental methods.
as §1, §2

E. coli HB4 ΔompC/F = format: cell-based, Escherichia coli; conditions: Escherichia coli
Excerpt: as §3, §1, §2

[2] = system: E. cloacae strain 231 (MLST 171, No ESBL); format: cell-based; conditions: Enterobacter cloacae
Method: (§4) The efficacy of these new BLIs was also evaluated against 18 genetically diverse WGS-characterized collection of OXA-48-positive Enterobacterales recovered as part of the Carbapenem-resistant Enterobacterales Genome Database Project (https://genomes.cnag.cat/incredble) listed in Table S2 ([13]). Combinations of clinical isolates (five pairs of Klebsiella pneumoniae, two pairs of Enterobacter cloacae, and two pairs of E. coli) were chosen for analysis: (i) nine strains carrying ESBLs; and (ii) nine strains (genetically closer available strains) without ESBLs.
as §1, §2

[3] = system: E. cloacae strain 235 (MLST 171, ESBL); format: cell-based; conditions: Enterobacter cloacae
Method: as §4, §1, §2

[4] = system: E. cloacae strain 272 (MLST 78, ESBL); format: cell-based; conditions: Enterobacter cloacae
Method: as §4, §1, §2

[5] = system: E. cloacae strain 281 (MLST 78, No ESBL); format: cell-based; conditions: Enterobacter cloacae
Method: as §4, §1, §2

[6] = system: E. coli strain 103 (MLST 10, ESBL); format: cell-based; conditions: Escherichia coli
Method: as §4, §1, §2

[7] = system: E. coli strain 177 (MLST 131, ESBL); format: cell-based; conditions: Escherichia coli
Method: as §4, §1, §2

[8] = system: E. coli strain 224 (MLST 127, No ESBL); format: cell-based; conditions: Escherichia coli; E. coli 224; β-lactamase inhibitor alone; read-out: MIC
Method: as §4, §1, §2

[9] = system: E. coli strain 264 (MLST 131, No ESBL); format: cell-based; conditions: Escherichia coli; E. coli 264; β-lactamase inhibitor alone; read-out: MIC
Method: as §4, §1, §2

[10] = system: K. pneumoniae strain 125 (MLST 307, ESBL); format: cell-based; conditions: Klebsiella pneumoniae
Method: as §4, §1, §2

[11] = system: K. pneumoniae strain 170 (MLST 307, No ESBL); format: cell-based; conditions: Klebsiella pneumoniae; K. pneumoniae 170; β-lactamase inhibitor alone; read-out: MIC
Method: as §4, §1, §2

[12] = system: K. pneumoniae strain 19 (MLST 11, ESBL); format: cell-based; conditions: Klebsiella pneumoniae
Method: as §4, §1, §2

[13] = system: K. pneumoniae strain 194 (MLST 392, No ESBL); format: cell-based; conditions: Klebsiella pneumoniae; K. pneumoniae 194; β-lactamase inhibitor alone; read-out: MIC
Method: as §4, §1, §2

[14] = system: K. pneumoniae strain 23 (MLST 392, ESBL); format: cell-based; conditions: Klebsiella pneumoniae
Method: as §4, §1, §2

[15] = system: K. pneumoniae strain 237 (MLST 147, No ESBL); format: cell-based; conditions: Klebsiella pneumoniae; K. pneumoniae 237; β-lactamase inhibitor alone; read-out: MIC
Method: as §4, §1, §2

[16] = system: K. pneumoniae strain 238 (MLST 15, ESBL); format: cell-based; conditions: Klebsiella pneumoniae
Method: as §4, §1, §2

[17] = system: K. pneumoniae strain 413 (MLST 147, ESBL); format: cell-based; conditions: Klebsiella pneumoniae
Method: as §4, §1, §2

[18] = system: K. pneumoniae strain 497 (MLST 11, No ESBL); format: cell-based; conditions: Klebsiella pneumoniae; K. pneumoniae 497; β-lactamase inhibitor alone; read-out: MIC
Method: as §4, §1, §2

[19] = system: K. pneumoniae strain 71 (MLST 15, No ESBL); format: cell-based; conditions: Klebsiella pneumoniae; K. pneumoniae 71; β-lactamase inhibitor alone; read-out: MIC
Method: as §4, §1, §2

[20] = E. cloacae 231, β-lactamase inhibitor alone, read-out: MIC
[21] = E. cloacae 281, β-lactamase inhibitor alone, read-out: MIC

SMILES | MIC (E. coli TG1) | MIC (E. coli TG1 (OXA-48)) | MIC [1] | MIC (E. coli HB4 ΔompC/F) | MIC [3] | MIC [4] | MIC [6] | MIC [7] | MIC [8] | MIC [9] | MIC [10] | MIC [11] | MIC [12] | MIC [13] | MIC [14] | MIC [15] | MIC [16] | MIC [17] | MIC [18] | MIC [19] | further results
NCCONC(=O)[C@@H]1CC[C@@H]2CN1C(=O)N2OS(=O)(=O)O [Nacubactam, nacubactam] | 2 µg/mL (≈ 6.17 µM) | 2 µg/mL (≈ 6.17 µM) | 2 µg/mL (≈ 6.17 µM) | 2 µg/mL (≈ 6.17 µM) | 8 µg/mL | 4 µg/mL | 2 µg/mL | 8 µg/mL | 8 µg/mL | 1 µg/mL | ≥ 128 µg/mL | 4 µg/mL | ≥ 128 µg/mL | 2 µg/mL | 2 µg/mL | 1 µg/mL | 16 µg/mL | ≥ 128 µg/mL | ≥ 128 µg/mL | 16 µg/mL | MIC [2, 20]: 1 µg/mL; MIC [5, 21]: 4 µg/mL
NCCN[C@H]1CC[C@H](CC(=O)N[C@H]2Cc3cccc(C(=O)O)c3OB2O)CC1 [Taniborbactam, taniborbactam] | ≥ 128 µg/mL | ≥ 128 µg/mL | ≥ 128 µg/mL | ≥ 128 µg/mL | ≥ 128 µg/mL | ≥ 128 µg/mL | ≥ 128 µg/mL | ≥ 128 µg/mL | ≥ 128 µg/mL | ≥ 128 µg/mL | ≥ 128 µg/mL | ≥ 128 µg/mL | ≥ 128 µg/mL | ≥ 128 µg/mL | ≥ 128 µg/mL | ≥ 128 µg/mL | ≥ 128 µg/mL | ≥ 128 µg/mL | ≥ 128 µg/mL | ≥ 128 µg/mL | MIC [2]: ≥ 128 µg/mL; MIC [5]: ≥ 128 µg/mL
O=C(O)C[C@@H]1CC[C@H](NC(=O)Cc2cccs2)B(O)O1 [Vaborbactam, vaborbactam] | ≥ 128 µg/mL | ≥ 128 µg/mL | ≥ 128 µg/mL | ≥ 128 µg/mL | ≥ 128 µg/mL | ≥ 128 µg/mL | ≥ 128 µg/mL | ≥ 128 µg/mL | ≥ 128 µg/mL | ≥ 128 µg/mL | ≥ 128 µg/mL | ≥ 128 µg/mL | ≥ 128 µg/mL | ≥ 128 µg/mL | ≥ 128 µg/mL | ≥ 128 µg/mL | ≥ 128 µg/mL | ≥ 128 µg/mL | ≥ 128 µg/mL | ≥ 128 µg/mL | MIC [2, 20]: ≥ 128 µg/mL; MIC [5, 21]: ≥ 128 µg/mL
